Results taken from the CheMixHub viscosity set.
± gives the uncertainty stated by the source.

Assay: xn = mol fraction of the nth substance listed
Details: 101 kPa

CS(C)=O + CC#N
viscosity [mPa·s]
Details	298 K	298.15 K	303.15 K	308 K	308.15 K	313.15 K	318 K	318.15 K
x1 = 0.2	0.5206 ± 0.04	0.477 ± 0.01	–	–	–	–	0.3814 ± 0.04	–
x1 = 0.4	0.8409 ± 0.04	0.687 ± 0.016	–	0.6302 ± 0.04	–	–	0.4513 ± 0.04	–
x1 = 0.6	1.16 ± 0.041	0.987 ± 0.022	–	0.8402 ± 0.04	–	–	–	–
x1 = 0.8	1.42 ± 0.041	1.42 ± 0.029	–	1.161 ± 0.041	–	–	0.8203 ± 0.04	–
x2 = 0.0249	–	1.911 ± 0.029	1.762 ± 0.027	–	1.61 ± 0.025	1.484 ± 0.023	–	1.348 ± 0.021
x2 = 0.0518	–	1.824 ± 0.028	1.684 ± 0.026	–	1.544 ± 0.024	1.425 ± 0.022	–	1.295 ± 0.021
x2 = 0.0759	–	1.75 ± 0.027	1.617 ± 0.025	–	1.485 ± 0.023	1.371 ± 0.022	–	1.247 ± 0.02
x2 = 0.1079	–	1.658 ± 0.025	1.531 ± 0.024	–	1.405 ± 0.022	1.298 ± 0.021	–	1.18 ± 0.019
x2 = 0.157	–	1.527 ± 0.024	1.406 ± 0.022	–	–	–	–	1.082 ± 0.018
x2 = 0.1998	–	1.422 ± 0.022	1.306 ± 0.021	–	1.194 ± 0.019	1.098 ± 0.018	–	1 ± 0.016
x2 = 0.2609	–	1.281 ± 0.02	–	–	1.066 ± 0.017	0.9759 ± 0.016	–	0.8875 ± 0.015
x2 = 0.3034	–	1.188 ± 0.019	1.085 ± 0.018	–	0.9838 ± 0.016	0.898 ± 0.015	–	0.8161 ± 0.014
x2 = 0.3548	–	1.082 ± 0.017	0.9867 ± 0.016	–	0.8905 ± 0.015	0.8098 ± 0.014	–	0.7348 ± 0.013
x2 = 0.411	–	0.9742 ± 0.016	0.8848 ± 0.015	–	0.7978 ± 0.013	0.7219 ± 0.012	–	0.6547 ± 0.011
x2 = 0.4696	–	0.8699 ± 0.015	0.7875 ± 0.013	–	0.7092 ± 0.012	0.6398 ± 0.011	–	0.5794 ± 0.01
x2 = 0.5084	–	0.8053 ± 0.014	0.7285 ± 0.013	–	0.6554 ± 0.011	0.591 ± 0.01	–	0.5348 ± 0.0097
x2 = 0.5566	–	0.7292 ± 0.013	0.6595 ± 0.011	–	0.5949 ± 0.011	0.5366 ± 0.0097	–	0.4864 ± 0.009
x2 = 0.6053	–	0.6586 ± 0.011	0.5945 ± 0.011	–	0.5379 ± 0.0098	0.4862 ± 0.009	–	0.4403 ± 0.0083
x2 = 0.6666	–	0.5821 ± 0.01	0.5266 ± 0.0096	–	0.4786 ± 0.0089	0.435 ± 0.0082	–	0.3971 ± 0.0077
x2 = 0.7114	–	0.5345 ± 0.0097	0.4841 ± 0.009	–	0.4428 ± 0.0083	0.4044 ± 0.0078	–	0.37 ± 0.0073
x2 = 0.7688	–	0.4819 ± 0.0089	0.4392 ± 0.0083	–	0.4048 ± 0.0078	0.3727 ± 0.0073	–	0.3423 ± 0.0069
x2 = 0.8081	–	0.4514 ± 0.0085	0.4129 ± 0.0079	–	0.3833 ± 0.0074	0.3554 ± 0.0071	–	0.3298 ± 0.0067
x2 = 0.851	–	0.4225 ± 0.008	0.3905 ± 0.0075	–	0.3645 ± 0.0072	0.3396 ± 0.0068	–	0.3178 ± 0.0065
x2 = 0.9009	–	0.3934 ± 0.0076	0.368 ± 0.0072	–	0.3459 ± 0.0069	0.3257 ± 0.0066	–	0.3062 ± 0.0063
x2 = 0.9502	–	0.3658 ± 0.0072	0.3478 ± 0.0069	–	0.3285 ± 0.0066	–	–	–
